Data on 7 substances can be found in patent US9976141B2, “Compositions and methods for inhibiting gene expression of Hif2alpha” (Arrowhead Madison Inc., priority 2015, dated 2018).

The test system of one series is human (tumor) Hif2α (EPAS1) mRNA. As to the kind of experiment: Hif2α knockdown in orthotopic RCC tumor bearing mice, single injection of RNAi trigger-delivery polymer conjugate, RT-qPCR (Table 7). The series is classed as in vivo. As to conditions: RNAi trigger 80 μg, polymer 126 400 μg; single tail vein injection; relative to isotonic glucose. Here is the method:
A pCR3.1 expression vector expressing the reporter gene secreted alkaline phosphatase (SEAP) under the CMV promoter was prepared by directional cloning of the SEAP coding sequence PCR amplified from Clontech's pSEAP2-basic vector. Convenient restriction sites were added onto primers used to amplify the SEAP coding sequence for cloning into the pCR3.1 vector (Invitrogen). The resultant construct pCR3-SEAP was used to create a SEAP-expressing A498 ccRCC cell line. Briefly, pCR3-SEAP plasmid was transfected into A498 ccRCC cells by electroporation following manufacturer's recommendation. Stable transfectants were selected by G418 resistance. Selected A498-SEAP clones were evaluated for SEAP expression and integration stability.
Female athymic nude mice were anesthetized with ˜3% isoflourane and placed in the right lateral decubitus position. A small, 0.5-1 cm, longitudinally abdominal incision in the left flank was made. Using a moist cotton swab, the left kidney was lifted out of the peritoneum and gently stabilized. Just before injection, a 1.0 ml syringe was filled with the cell/Matrigel mixture and a 27 gauge needle catheter was attached to the syringe tip. The filled syringe was then attached to a syringe pump (Harvard Apparatus, model PHD2000) and primed to remove air. The tip of a 27-gauge needle catheter attached to a syringe was inserted just below the renal capsule near the caudal pole and the tip of the needle was then carefully advanced cranially along the capsule 3-4 mm. A 10 μl aliquot of 2:1 (vol:vol) cell/matrigel mixture containing about 300,000 cells was slowly injected into the kidney parenchyma using a syringe pump. The needle was left in the kidney for 15-20 seconds to ensure the injection was complete. The needle was then removed from the kidney and a cotton swab was placed over the injection site for 30 seconds to prevent leakage of the cells or bleeding. The kidney was then gently placed back into the abdomen and the abdominal wall was closed. Serum was collected every 7-14 days after implantation to monitor tumor growth using a commercial SEAP assay kit. For most studies, tumor mice were used 5-6 weeks after implantation, when tumor measurements were typically around 4-8 mm.
RGD targeted HiF2α-RNAi trigger delivery conjugates. Delivery polymers were modified using RGD-PEG-HyNic, RGD-PEG-ACit-PNP, or RDG-PEG-FCitFP-TFP and PEG-dipeptide modifying agents. The indicated amount of polymer 126 or 100A polymer was modified with 8×PEG12-ACit-PABC-PNP/0.5× aldehyde-PEG24-FCit-PABC-PNP (with RGD mimic #1-PEG-HyNic using protocol #1) and the indicated amount of the indicated Hif2α RNAi trigger. Polymer 064 was modified according to protocol 7. Kidney RCC tumor-bearing mice were generated as described and treated with a single tail vein injection of isotonic glucose (G1) or the indicated Hif2α RNAi trigger-delivery polymer conjugate. Mice were euthanized at the indicated time after injection and total RNA was prepared from kidney tumor using Trizol reagent following manufacturer's recommendation. Relative HiF2α mRNA levels were determined by RT-qPCR as described below and compared to mice treated with delivery buffer (isotonic glucose) only.
In preparation for quantitative PCR, total RNA was isolated from tissue samples homogenized in TriReagent (Molecular Research Center, Cincinnati, Ohio) following the manufacturer's protocol. Approximately 500 ng RNA was reverse-transcribed using the High Capacity cDNA Reverse Transcription Kit (Life Technologies). For human (tumor) Hif2α (EPAS1) expression, pre-manufactured TaqMan gene expression assays for human Hif2α (Catalog #4331182) and CycA (PPIA) Catalog #: 4326316E) were used in biplex reactions in triplicate using TaqMan Gene Expression Master Mix (Life Technologies) or VeriQuest Probe Master Mix (Affymetrix). […]
In general terms: In qPCR the cycle at which signal appears reflects the starting amount.
Regarding “AD01034 (antisense TAAGUUAAGCUCCCAUACATT; sense UGUAUGGGAGCUUAACUUAT; Hif2alpha RNAi agent antisense strand; modified_base 2,4,6,8,10,12,14,16,18 /mod_base = “2′-deoxy-2′-fluoro corresponding nucleoside”; modified_base 3,5,7,9,11,13,15,17,19 /mod_base = “2′-O-methyl corresponding nucleoside”; modified_base 21 /mod_base = “5′-phosphorothioate corresponding nucleotide”; Hif2alpha RNAi agent sense strand; modified_base 1,3,5,7,9,11,13,15,17,19 /mod_base = “2′-deoxy-2′-fluoro corresponding nucleoside”; modified_base 2,4,6,8,10,12,14,16,18 /mod_base = “2′-O-methyl corresponding nucleoside”; modified_base 20 /mod_base = “3′-3′-linked nucleotide”; modified_base 1 /mo)”, the “Relative Expression day 4 (Hif2α mRNA in kidney tumor)” value was found to be 0.35.
As for “AD01255 (antisense TUUCAUGAAAUCGUUACGUTT; sense UAUACGUAACGAUUUCAUGAAAT; Hif2alpha RNAi agent antisense strand; modified_base 2,4,6,8,10,12,14,16,18 /mod_base = “2′-deoxy-2′-fluoro corresponding nucleoside”; modified_base 3,5,7,9,11,13,15,17,19 /mod_base = “2′-O-methyl corresponding nucleoside”; modified_base 21 /mod_base = “5′-phosphorothioate corresponding nucleotide”; Hif2alpha RNAi agent sense strand; modified_base 2 modified base = “2′-hydroxy corresponding nucleoside”; modified_base 4,6,8,10,12,14,16,18,20,22 /mod_base = “2′-deoxy-2′-fluoro corresponding nucleoside”; modified_base 1,3,5,7,9,11,13,15,17,19,21 /mod_base = “2′-O-methyl correspondin g nucleosid)”, the “Relative Expression day 4 (Hif2α mRNA in kidney tumor)” value is 0.28.
As to “AD01256 (antisense TUUCAUGAAAUCGUUACGUTT; sense ACGUAACGAUUUCAUGAAAT; Hif2alpha RNAi agent antisense strand; modified_base 2,4,6,10,12,14,16,18 /mod_base = “2′-deoxy-2′-fluoro corresponding nucleoside”; modified_base 3,5,7,9,11,13,15,17,19 /mod_base = “2′-O-methyl corresponding nucleoside”; modified_base 8 /mod_base = “2′-3′ seco corresponding nucleotide”; modified_base 21 /mod_base = “5′-phosphorothioate corresponding nucleotide”; Hif2alpha RNAi agent sense strand; modified_base 1,3,5,7,9,11,13,15,17,19 /mod_base = “2′-deoxy-2′-fluoro corresponding nucleoside”; modified_base 2,4,6,8,10,12,14,16,18 /mod_base = “2′-O-methyl corresponding nucleoside”; modified_b)”, the “Relative Expression day 4 (Hif2α mRNA in kidney tumor)” value is on record as 0.22.
Same read-out and setting: in the case of “AD01257 (antisense TUUCAUGAAAUCGUUACGUTT; sense ACGUAACGAUUUCAUGAAAT; Hif2alpha RNAi agent antisense strand; modified_base 2,4,6,8,10,12,14,16,18 /mod_base = “2′-deoxy-2′-fluoro corresponding nucleoside”; modified_base 3,5,7,11,13,15,17,19 /mod_base = “2′-O-methyl corresponding nucleoside”; modified_base 9 /mod_base = “2′-3′ seco corresponding nucleotide”; modified_base 21 /mod_base = “5′-phosphorothioate corresponding nucleotide”; Hif2alpha RNAi agent sense strand; modified_base 1,3,5,7,9,11,13,15,17,19 /mod_base = “2′-deoxy-2′-fluoro corresponding nucleoside”; modified_base 2,4,6,8,10,12,14,16,18 /mod_base = “2′-O-methyl corresponding nucleoside”; modified_b)” it was 0.24; in that of “AD01258 (antisense TUUCAUGAAAUCGUUACGUTT; sense ACGUAACGAUUUCAUGAAAT; Hif2alpha RNAi agent antisense strand; modified_base 2,4,6,8,10,12,14,16,18 /mod_base = “2′-deoxy-2′-fluoro corresponding nucleoside”; modified_base 3,5,7,9,11,13,17,19 /mod_base = “2′-O-methyl corresponding nucleoside”; modified_base 15 /mod_base = “2′-3′ seco corresponding nucleotide”; modified_base 21 /mod_base = “5′-phosphorothioate corresponding nucleotide”; Hif2alpha RNAi agent sense strand; modified_base 1,3,5,7,9,11,13,15,17,19 /mod_base = “2′-deoxy-2′-fluoro corresponding nucleoside”; modified_base 2,4,6,8,10,12,14,16,18 /mod_base = “2′-O-methyl corresponding nucleoside”; modified_b)”, 0.38.

The series is the same for the next values; noted with them: RNAi trigger 115 μg, polymer 100A 375 μg; single tail vein injection; relative to isotonic glucose.
For “AD01288 (antisense TUUCAUGAAAUCGUUACGUTT; sense ACGUAACGAUUUCAUGAAAT; Hif2alpha RNAi agent antisense strand; modified_base 2,4,6,8,10,14,16,18 /mod_base = “2′-deoxy-2′-fluoro corresponding nucleoside”; modified_base 3,5,7,9,11,12,13,15,17,19 /mod_base = “2′-O-methyl corresponding nucleoside”; modified_base 21 /mod_base = “5′-phosphorothioate corresponding nucleotide”; Hif2alpha RNAi agent sense strand; modified_base 1,3,5,7,8,9,11,13,15,17,19 /mod_base = “2′-deoxy-2′-fluoro corresponding nucleoside”; modified_base 2,4,6,10,12,14,16,18 /mod_base = “2′-O-methyl corresponding nucleoside”; modified_base 20 /mod_base = “3′-3′-linked nucleotide”; modified_base 1 /mo)”, the “Relative Expression day 4 (Hif2α mRNA in kidney tumor)” value is reported as 0.32.
“AD01289 (antisense TUUCAUGAAAUCGUUACGUTT; sense ACGUAACGAUUUCAUGAAAT; Hif2alpha RNAi agent antisense strand; modified_base 2,4,6,8,10,12,14,16,18 /mod_base = “2′-deoxy-2′-fluoro corresponding nucleoside”; modified_base 3,5,7,9,11,13,15,17,19 /mod_base = “2′-O-methyl corresponding nucleoside”; modified_base 21 /mod_base = “5′-phosphorothioate corresponding nucleotide”; Hif2alpha RNAi agent sense strand; modified_base 1,3,5,6,7,9,11,13,15,17,19 /mod_base = “2′-deoxy-2′-fluoro corresponding nucleoside”; modified_base 2,4,8,10,12,14,16,18 /mod_base = “2′-O-methyl corresponding nucleoside”; modified_base 20 /mod_base = “3′-3′-linked nucleotide”; modified_base 1 /mo)”: the “Relative Expression day 4 (Hif2α mRNA in kidney tumor)” value is 0.28.
